The subject of one series is Jurkat cells. The series can be described thus: Cell cytotoxicity assay (r). Conditions: 24 hours. Format: cell-based, human. As to the method:
1×10^5 Jurkat cells (immortalised human T lymphocytes) are added to the appropriate number of wells of a 96 well plate in 100 μL of media (RPMI supplemented with 10% foetal bovine serum). 1 μL of DMSO control (final concentration 1.0% v/v) or test compound (final concentration 20, 5 or 1 μg/mL) is added to the wells and incubated at 37° C., 5% CO2. After 24 hours, the plate is centrifuged at 1200 rpm for 3 minutes and the supernatant discarded. Cells are then resuspended in 150 μL (final concentration 7.5 μg/mL) of propidium iodide (PI) in PBS and incubated at 37° C., 5% CO2 for 15 minutes. After 15 minutes, cells are analysed by flow cytometry (BD accuri) using the FL3 window. The % viability is calculated as the % of cells that are PI negative in the test wells normalised to the DMSO control.

Series [1] in a line: Solubility in fasted-state simulated colonic fluid (FaSSCoF) at pH 6.5. Format: physicochemical. The following applies: 25 °C, pH 6.5, fassgf or other biorelevant, thermodynamic from solid. On the procedure: The solubilities of compounds of the invention in FaSSCoF at pH 6.5 are determined using a modification of a previously-reported procedure (Vertzoni, M., et al. Pharm. Res. 2010, 27, 2187-2196). In place of the bile salt extract employed in the original procedure (which extract is no longer available), the modified procedure uses a mixture of sodium taurochlorate (0.15 g), glycocholic acid (0.15 g), ursodeoxycholic acid (0.05 g), cholic acid (0.05 g), and glycodeoxycholic acid (0.05 g). These five bile acids are ground together with a mortar and pestle to produce a fine white powder that is incorporated into the FaSSCoF, as outlined below.
Tris(hydroxymethyl)aminomethane (Tris; 0.275 g) and maleic acid (0.44 g) are dissolved in water (35 mL) to give a solution whose pH is adjusted to 6.5 by treatment with 0.5M NaOH (ca. 12 mL). The solution is then made up to 50 mL with water. A portion of this Tris/maleate buffer solution (ca. 25 mL) is added to a 0.5 L round-bottomed flask, before being treated with 0.00565 g of the bile acid mixture described above. Solutions of phosphatidylcholine (0.0111 g) in DCM (0.15 mL) and palmitic acid (0.0013 g) in DCM (0.15 mL) are added, then the organic solvent is evaporated off under reduced pressure at 40° C. until a clear solution, with no perceptible DCM odour, is achieved. The volume of the evaporated solution is adjusted to 50 mL by addition of the remainder of Tris/maleate buffer, then BSA (0.115 g) is added, before being dissolved by gentle agitation.
Test compounds are suspended in the pH 6.5 FaSSCoF medium to give a maximum final concentration of 2-10 mg/mL. The suspensions are equilibrated at 25° C. for 24 h, before being filtered through a glass fibre C filter. The filtrates are then diluted as appropriate for injection and quantification by HPLC with reference to a standard. Different volumes of the standard, diluted and undiluted sample solutions are injected and the solubilities are calculated using the peak areas determined by integration of the peak found at the same retention time as the principal peak in the standard injection.

Setting [2] is: pH 6.5 FaSSCoF Solubility (mg/mL) Run 1.
The mark [3] stands for this setting: pH 6.5 FaSSCoF Solubility (mg/mL) Run 2.

The text below walks through data of patent publication US9751837B2, “Kinase inhibitors” (RESPIVERT LIMITED, priority 2014, dated 2017).

Molecules are shown by their SMILES. Converted amounts (≈) assume the structure as drawn.

Take `COc1cc(Nc2cc(Oc3ccc(NC(=O)Nc4cc(C(C)(C)C)cc(NS(C)(=O)=O)c4OC)c4ccccc34)ccn2)ccc1C(=O)NCCCCCN(C)C` [17(bd), 4-((4-((4-(3-(5-(tert-Butyl)-2-methoxy-3-(methylsulfonamido)phenyl)ureido)naphthalen-1-yl)oxy)pyridin-2-yl)amino)-N-(5-(dimethylamino)pentyl)-2-methoxybenzamide]: the “% Viability at 20 μg/mL” value with Jurkat cells is listed as 0.1%.
On to `CCN1CCN(CCNC(=O)c2ccc(Nc3cc(Oc4ccc(NC(=O)Nc5cc(C(C)(C)C)cc(NS(C)(=O)=O)c5OC)c5ccccc45)ccn3)cc2OC)CC1` [17(be), 4-((4-((4-(3-(5-(tert-Butyl)-2-methoxy-3-(methylsulfonamido)phenyl)ureido)naphthalen-1-yl)oxy)pyridin-2-yl)amino)-N-(2-(4-ethylpiperazin-1-yl)ethyl)-2-methoxybenzamide], for which, in the series on Jurkat cells, the “% Viability at 5 μg/mL” value is on record as 0.7% and the “% Viability at 20 μg/mL” value is listed as 0.5%.
For `COc1cc(Nc2cc(Oc3ccc(NC(=O)Nc4cc(C(C)(C)C)cc(NS(C)(=O)=O)c4OC)c4ccccc34)ccn2)ccc1C(=O)NCCN1CCN(C)CC1(C)C` [17(bi), 4-((4-((4-(3-(5-(tert-Butyl)-2-methoxy-3-(methylsulfonamido)phenyl)ureido)naphthalen-1-yl)oxy)pyridin-2-yl)amino)-2-methoxy-N-(2-(2,2,4-trimethylpiperazin-1-yl)ethyl)benzamide], in the series on Jurkat cells, the “% Viability at 5 μg/mL” value amounted to 0.8% and the “% Viability at 20 μg/mL” value is 0.6%.
In the case of `CCC(=O)NS(=O)(=O)c1ccc(Nc2nccc(Oc3ccc(NC(=O)Nc4cc(C(C)(C)C)cc(NS(C)(=O)=O)c4OC)c4ccccc34)n2)cc1OC` [17(bk), N-((4-((4-((4-(3-(5-(tert-Butyl)-2-methoxy-3-(methylsulfonamido)phenyl)ureido)-naphthalen-1-yl)oxy)pyrimidin-2-yl)amino)-2-methoxyphenyl)sulfonyl)propionamide], the “% Viability at 1 μg/mL” value in the series with Jurkat cells was 93.0%.
For the molecule `COc1cc(Nc2cc(Oc3ccc(NC(=O)Nc4cc(NS(C)(=O)=O)cc(C(C)(C)C)c4)c4ccccc34)ccn2)ccc1C(=O)NCCC1CCN(C)CC1` [17(bs), 4-((4-((4-(3-(3-(tert-Butyl)-5-(methylsulfonamido)phenyl)ureido)naphthalen-1-yl)oxy)pyridin-2-yl)amino)-2-methoxy-N-(2-(1-methylpiperidin-4-yl)ethyl)benzamide], the “% Viability at 20 μg/mL” value with Jurkat cells came out at 0.3%.
Same read-out and setting: to `COc1cc(Nc2nccc(Oc3ccc(NC(=O)Nc4cc(C(C)(C)C)cc(NS(C)(=O)=O)c4OC)c4ccccc34)n2)ccc1C(=O)NCCOCCOCCO` [17(by), 4-((4-((4-(3-(5-(tert-Butyl)-2-methoxy-3-(methylsulfonamido)phenyl)ureido)naphthalen-1-yl)oxy)pyrimidin-2-yl)amino)-N-(2-(2-(2-hydroxyethoxy)ethoxy)ethyl)-2-methoxybenzamide] belongs 1.6%.
As for `COc1cc(Nc2cc(Oc3ccc(NC(=O)Nc4cc(C(C)(C)C)cc(NS(C)(=O)=O)c4OC)c4ccccc34)ccn2)ccc1S(=O)(=O)CCCN1CCN(C)CC1` [17(ch), N-(5-(tert-Butyl)-2-methoxy-3-(3-(4-((2-((3-methoxy-4-((3-(4-methylpiperazin-1-yl)propyl)sulfonyl)phenyl)amino)pyridin-4-yl)oxy)naphthalen-1-yl)ureido)phenyl)methanesulfonamide], in the series on Jurkat cells, the “% Viability at 1 μg/mL” value is recorded as 82.0% and the “% Viability at 20 μg/mL” value was determined as 0.7%.
Regarding `COc1cc(Nc2cc(Oc3ccc(NC(=O)Nc4cc(C(C)(C)C)cc(NS(C)(=O)=O)c4OC)c4ccccc34)ccn2)ccc1C(=O)N[C@@H]1CCN(C)C1` [17(cq), (R)-4-((4-((4-(3-(5-(tert-Butyl)-2-methoxy-3-(methylsulfonamido)phenyl)ureido)-naphthalen-1-yl)oxy)pyridin-2-yl)amino)-2-methoxy-N-(1-methylpyrrolidin-3-yl)benzamide], in the series with Jurkat cells, the “% Viability at 5 μg/mL” value is 9.0% and the “% Viability at 20 μg/mL” value came to 0.7%.
On the same counts, the results for `COc1cc(Nc2cc(Oc3ccc(NC(=O)Nc4cc(C(C)(C)C)cc(NS(C)(=O)=O)c4OC)c4ccccc34)ccn2)ccc1C(=O)NCCN1CC[C@@H](O)C1` [17(cr), (R)-4-((4-((4-(3-(5-(tert-Butyl)-2-methoxy-3-(methylsulfonamido)phenyl)ureido)-naphthalen-1-yl)oxy)pyridin-2-yl)amino)-N-(2-(3-hydroxypyrrolidin-1-yl)ethyl)-2-methoxybenzamide] are 18.0% and 0.9%.
As to `COc1cc(Nc2cc(Oc3ccc(NC(=O)Nc4cc(C(C)(C)C)cc(NS(C)(=O)=O)c4OC)c4ccccc34)ccn2)ccc1S(=O)(=O)N(C)CCCN1CCN(C)CC1` [Example 25, 4-((4-((4-(3-(5-(tert-Butyl)-2-methoxy-3-(methylsulfonamido)phenyl)ureido)naphthalen-1-yl)oxy)pyridin-2-yl)amino)-2-methoxy-N-methyl-N-(3-(4-methylpiperazin-1-yl)propyl)benzenesulfonamide], the “% Viability at 20 μg/mL” value with Jurkat cells worked out at 0.7%.
Consider `COc1cc(Nc2cc(Oc3ccc(NC(=O)Nc4cc(C(C)(C)C)cc(NS(C)(=O)=O)c4OC)c4ccccc34)ccn2)ccc1C(=O)NCCC1CCNCC1` [Example 27, 4-((4-((4-(3-(5-(tert-Butyl)-2-methoxy-3-(methylsulfonamido)phenyl)ureido)naphthalen-1-yl)oxy)pyridin-2-yl)amino)-2-methoxy-N-(2-(piperidin-4-yl)ethyl)benzamide], for which the “% Viability at 20 μg/mL” value with Jurkat cells is 1.7%.
With `COc1cc(Nc2cc(Oc3ccc(NC(=O)Nc4cc(C(C)(C)C)cc(NS(C)(=O)=O)c4OC)c4ccccc34)ccn2)cc(OC)c1C(=O)NCCN1CCN(CCO)CC1` [Example 37, 4-((4-((4-(3-(5-(tert-Butyl)-2-methoxy-3-(methylsulfonamido)phenyl)ureido)naphthalen-1-yl)oxy)pyridin-2-yl)amino)-N-(2-(4-(2-hydroxyethyl)piperazin-1-yl)ethyl)-2,6-dimethoxybenzamide], the thermodynamic solubility at 24 h in series [1] (setting [2]) was 25 µg/mL (≈ 28.2 µM); in series [1] (setting [3]), 24 µg/mL (≈ 27.1 µM); in series [1] (pH 6.5 FaSSCoF Solubility (mg/mL) Run 3), 7 µg/mL (≈ 7.91 µM); in series [1] (pH 6.5 FaSSCoF Solubility (mg/mL) Run 4) it was 6 µg/mL (≈ 6.78 µM).
As to `COc1cc(Nc2cc(Oc3ccc(NC(=O)Nc4cc(C(C)(C)C)cc(NS(C)(=O)=O)c4OC)c4ccccc34)ccn2)ccc1S(=O)(=O)CCOCCOCCO` [Example 40, N-(5-(tert-Butyl)-3-(3-(4-((2-((4-((2-(2-(2-hydroxyethoxy)ethoxy)ethyl)sulfonyl)-3-methoxyphenyl)amino)pyridin-4-yl)oxy)naphthalen-1-yl)ureido)-2-methoxyphenyl)-methanesulfonamide], the thermodynamic solubility at 24 h in series [1] (setting [2]) and in series [1] (setting [3]) was 5 µg/mL (≈ 5.87 µM) each time.
On to `COc1cc(Nc2cc(Oc3ccc(NC(=O)Nc4cc(C(C)(C)C)cc(NS(C)(=O)=O)c4OC)c4ccccc34)ccn2)ccc1C(=O)NC[C@H](O)[C@H](O)[C@H](O)CO` [Example 42, 4-((4-((4-(3-(5-(tert-Butyl)-2-methoxy-3-(methylsulfonamido)phenyl)ureido)naphthalen-1-yl)oxy)pyridin-2-yl)amino)-2-methoxy-N-((2S,3S,4R)-2,3,4,5-tetrahydroxypentyl)benzamide], for which the figures for the thermodynamic solubility at 24 h in series [1] (setting [2]) and in series [1] (setting [3]) were 7 µg/mL (≈ 8.4 µM) and 9 µg/mL (≈ 10.8 µM), respectively.
